The values below come from patent publication US20170367338A1, “COMPOSITIONS AND METHODS FOR IMPROVING AGRONOMIC CHARACTERISTICS OF PLANTS” (MONSANTO TECHNOLOGY LLC, priority 2014, published 2017).

In brackets after ≈: the same amount, converted by molar mass. Read-outs that look alike come from different tables or passages of the source. Marks after values point to notes of the source that are not given here.

Data set [1] relates to root knot nematode. Put plainly: Pre-plant incorporated (PPI) greenhouse test of root knot nematode on cucumber plants. The format is in vivo. Particulars: for pest or weed control at 4000 g/ha: 4 kg/ha, read-out: percent control (galling reduction), 4 kg/ha rate; for pest or weed control at 8000 g/ha: 8 ka/ha, read-out: percent control (galling reduction), 8 ka/ha rate. An excerpt:
The PPI test examines the effect of pre-incorporation of compounds in soil and longer aging to simulate in furrow methods of nematicide application in the field. The PPI test exposes compounds to a higher volume of soil and drying which can result in more severe soil binding. Compounds are also aged for longer periods which can lead to more extensive biotic and abiotic degradation further limiting activity.
The chemically treated soil (sandy soil mix) for all treatment days (e.g., 7 days, 14 days, 21 days) treatments is potted into their appropriate pots. On the same day the 7 day treatment pots are seeded. One week later eggs are applied and 14 days after egg application the test is harvested. The 14 day treatments are planted 7 days after the first planting. The 14 day planting and 7 day inoculation happen on the same day. One week later the 14 day treatments are inoculated with eggs. These are harvested 14 days after the inoculation. The 21 day treatments are planted 14 days after the first planting. The 14 day inoculation and 21 day planting are done on the same day. One week later the 21 day plants are inoculated with eggs. The 7 day treatment is harvested the same day as the 21 day inoculation. Fourteen days after inoculation the 21 day plants are harvested.
For each compound a stock is prepared using 4 mg material in 4 ml of acetone. The soil is mixed by placing 80 ml of field soil and 320 ml of sand in a plastic bag and mixing well. The formulation for treatment is done by adding 2.13 ml (8 kg/ha rate), 1.06 ml (4 kg/ha rate) or 0.53 ml (2 kg/ha rate) to a vial and raising it with 10 ml in 0.05% X100. Soil is then treated by adding the entire 10 ml to the 400 ml of mix in the bag. The treated soil is immediately mixed well in the sealed bag to distribute the compound evenly. Approximately 95 ml is used to fill each 2-inch square pot up to the top with some soil compression and flattening. For each compound and for the control treatments 4 pots are filled. All pots are watered until moist but with no run-out through the bottom.
The PPI test simulates 8, 4 and 2 kg/ha rates incorporated 15 cm deep in the field and is equivalent to the 2, 1 and 0.5 kg/ha drench application rates in the standard 2-inch pot cucumber greenhouse assay.

The subject of data set [2] is root knot nematode (RKN). Description: RKN greenhouse soil assay on cucumber plants. Particulars: Radex emulsifiable concentrate formulation (6.25% active ingredient). In kind it is in vivo.
Data set [3] concerns root knot nematode (RKN). Put plainly: RKN greenhouse soil assay on cucumber plants. Particulars: for percent control (galling reduction), Acetone 1 mg/kg: Acetone formulation (10% acetone in 0.05% Triton X 100). In kind it is in vivo. The text has this:
Cucumber seeds are planted in a sandy soil mixture in two inch square plastic pots. When the cotyledons are fully opened and just as the first leaf begins to emerge, usually 7 days after planting, chemistry for the 7 day treatment is applied. One week later the chemistry for the 0 day treatment is applied. Separate plants are used for each application. The plants are generally in the 1-2 leaf stage now. At least four hours after the chemistry application the pots are inoculated with root knot nematode (RKN) eggs. Plants are rated for galling 14 days after the egg inoculation.
(§1) One milligram of chemistry per four pots is equal to one kilogram per hectare of chemical. A standard test uses four replications. For rates above 2 kg/ha, the desired amount of chemical is weighed into a 30 ml vial (example: 8 kg/ha rate =8 mg chemical in 30 ml vial). The chemical is dissolved in 2 ml of appropriate solvent, generally acetone. For rates below 2 kg/ha, 2 milligrams of chemistry is weighed into the vial and dissolved in 2 ml of the solvent. The appropriate amount of chemical concentrate is then pipetted into a separate 30 ml vial and solvent is added to bring the volume to 2 ml (example 0.5 kg/ha=0.5 ml of concentrate+1.5 ml solvent). Each dissolved concentrate is then brought to a total of 20 milliliters using 0.05% Triton X 100 surfactant solution.
(§2) Pots to be treated are moist but not saturated. To each of four pots, five milliliters of the appropriate chemical solution is pipetted to the media surface making sure to avoid contact with the base of the plant. Immediately following chemical application, using a mist nozzle, the pot surface is wetted sufficiently to saturate the pot watering in the chemistry. The chemical application is done in the morning.
(§3) Nematode eggs, either SCN or RKN, are added to distilled water to create a concentration of 1000 vermiform eggs […]. At least four hours after chemical treatment the eggs are applied to the treated pots plus non-treated check plants. A small hole about 1 cm deep is punched into the pot surface. One milliliter of the nematode egg slurry is pipetted into the hole. Immediately afterwards the hole is gently covered. Watering of the test plants is then restricted to only water as needed to prevent wilt for a period of 24 hours. After the 24 hour restricted watering, normal sub-irrigation watering is done for the duration of the test.

Data set [4] is classed as in vivo. As to the method: Acute oral toxicity testing was performed in mice in accordance with test method P203.UDP, as administered by Eurofins/Product Safety Laboratories (Dayton, New Jersey). CD-1/Swiss derived albino mice were obtained and group housed in suspended solid bottom caging. The mice were fed rodent chow and filtered tap water was supplied ad libitum. Following acclimation to the laboratory setting, a group of animals was fasted overnight by removing food from the cages. After the fasting period, three female mice were selected based on vitality and initial body weights. The individual compound doses were calculated from these body weights.
The test substance was prepared as a 1% (50 mg/kg) or 5% (500 mg/kg) weight to weight (w/w) mixture in a 0.5% w/w solution of carboxymethylcellulose (CMC) in distilled water. A tissue homogenizer was used to create a homogeneous mixture. A dose of 50 or 500 mg/kg was administered to three healthy mice per dose level by oral intubation using a ball-tipped gavage needle attached to a syringe. After administration, the animals were returned to their cages, and feed was replaced immediately after dosing.
Body weights were recorded prior to initiation and on Days 7 and 14 or a soon as possible after death.

The subject of data set [5] is Meloidogyne incognita. Put plainly: Fall nematicidal field test on squash.
Source text: The soil was a native prairie/pasture covering silty clay loam soil. […] Total volume of each hole was about 1.2 cubic feet. […] Holes were filled and then re-filled 5 days later after settling. […] Organic matter was 0.2% and pH was 6.8.
Treatments were arranged in a block design with the blocks laid out perpendicular to the primary slope and parallel to secondary slope. There are 7 inoculated controls and 5 non-inoculated controls and the distributions of disease severity appeared independent of location.
The resultant mix is the same as used in the standard greenhouse assays (10% acetone, 0.05% X100). The oxamyl treatments were prepared from Vydate 2L formulated the same way. The 500 ml was placed in a watering can and the entire volume was evenly sprinkled over the surface of the plot. No runoff occurred and pooling, if any, was short lived. The final drench volume was 0.58 ml/cm^2, compared to 0.2 ml/cm^2 used in our greenhouse, however the microplots are much deeper so the drench volume applied per soil volume treated is roughly the same.
Meloidogyne incognita eggs were harvested over a two week period and stored at approximately 5° C. until needed. A stock of 5.6 million vermiform eggs was adjusted to 9000/m1 in 620 ml. One day after treatment, two holes were made in each plot about 7 cm apart and equidistant from the squash plants. Five ml of egg suspension was pipetted into each hole, which was then sealed and the plot lightly watered. A total of 90,000 vermiform eggs were added to each plot.
The first root evaluation was at 28 DAT. The tops were cut off and weighed immediately in the field, and the roots were carefully dug out so as not to disturb the remaining plant.
The subject of data set [6] is Meloidogyne incognita. Put plainly: M. incognita miniaturized greenhouse assay on cucumber seedlings. The format is in vivo. The note with it: 1 ppm. How it is done: The test compound is dissolved in an acetone solution and added to water. A sprouted cucumber seedling is placed into a vial with dry sand and the water-chemical solution is added immediately. Twenty four hours later Meloidogyne incognita eggs are added to the vials and 10 to 12 days later the roots are evaluated for nematode galling.
Cucumber seeds are sprouted for 3 days in moist paper towels. Acceptable sprouts should be 3 to 4 cm long with several lateral roots just emerging. Stock solutions of chemistry are prepared in a mixture of acetone and Triton X100 (412 mg in 500 mL) to a final concentration of 5 mg/mL. The chemical stock solution is then added to 10 mL deionized water plus 0.015% Triton X100 and mixed thoroughly. This is enough to test each condition in triplicate. Ten mL dry sand is added to each vial. At this time the solubility of the chemistry is visually determined and recorded as either ppt (large precipitates) or cloudy (fine precipitates). Seedlings are planted by tilting the vial and laying the seedling in the correct orientation so that the cotyledons are just above the sand and then tilting back to cover the radicles with sand. 3.3 ml water/chemical mix is added to each vial and the vials placed in racks under fluorescent light banks. The vials are inoculated two days after planting by adding 500 vermiform M. incognita eggs to each vial in 50 uL of deionized or spring water. The vials are then kept under the fluorescent lamps at ambient room temperature and watered as needed with 1mL deionized water, usually twice during duration of test. Harvest of the cucumber plants is done 10 to 12 days after inoculation by washing sand off the roots. A root gall rating and visual phytotoxicity rating is assigned using the following scales: Gall rating scale (Gall: % root mass galled): 0=0-5%; 1=6-20%; 2=21-50%; and 3=51-100%. The average of the triplicate gall rating is then calculated: green=0.00-0.33 (no galls); yellow=0.67-1.33 (mild galling); orange=1.67-2.33 (moderate galling); red=2.67-3.00 (severe galling). Visual phytotoxicity scale is also assigned (Vis. tox; visual reduction in root mass compared to the control): rs1=mild stunting; rs2=moderate stunting; rs3=severe stunting.

For data set [7], the system named is soybean cyst nematode (SCN). Put plainly: SCN greenhouse sand assay on soybean plants. In kind it is in vivo. The note with it: Glycine max, 672 h, read-out: percent control (cyst number reduction) relative to the control blank treatment.
Source text: Soybeans seeds are planted in 100% sand in two inch square plastic pots. Chemical treatment is done when the soybeans show the first trifoliate beginning to emerge about 10 to 12 days after planting. At least four hours after chemical application the nematode soybean cyst nematode (SCN) eggs are applied and 28 days after the egg inoculation the test is harvested.
as §1, §2, §3

Data set [8] has as its system C. elegans. Put plainly: Three day C. elegans well assay. In kind it is in vivo. Particulars: Caenorhabditis elegans. As to the method:
Various compounds were tested for nematicidal activity against C. elegans using contact assays in wells. The assays were performed as described below. The test compounds were solubilized in DMSO at 10 mg/ml to create 100× stock solutions. A dilution series was created by diluting the stock solution with DMSO. For each well assay 4 ul of the appropriate dilution is added to a well of a test plate. A 400 ul aliquot of bacterial stock (in M9 buffer with ampicillin and nystatin) are added to each well of the test plate. Worms are added and the test plate placed on a rotary shaker and held at 20° C. Worms are examined and scored at 4 hrs, 24 hrs, 48 hrs and 72 hours. L1 worms and L4 worms were used in the assay. L1 worms are prepared by plating eggs on a plate without a bacterial feeding layer. The eggs hatch and arrest at the L1 stage. This L1 stage population is then used to create a stock for the experiments. To create an L4 stage stock a small number of worms are taken from an overgrown and starved plate of worms and seeded on a plate with a bacterial feeder layer. A 25 ul aliquot of worms is added to each well in the assay.

Where [9] appears, read: 336 h, fourteen day pre-plant incorporated, test a.
The mark [10] stands for this setting: fourteen day pre-plant incorporated, test a.
Setting [11] is: 504 h, twenty one day pre-plant incorporated.

Turning to `Brc1ccc(-c2noc(-c3ccco3)n2)cc1` [compound 5467], the pest or weed control at 4000 g/ha in data set [1] (setting [9]) worked out at 76%. Moreover, in data set [1] (setting [10]), the “percent control (galling reduction), 2 kg/ha rate” value is given as 71^a percent and the pest or weed control at 8000 g/ha was 100%. The “percent control (galling reduction), Radex 1 mg/kg” value in data set [2] came out at 88%. The “percent control (galling reduction), Acetone 1 mg/kg” value in data set [3] is 73%.

As for `Brc1ccc(-c2noc(-c3cccs3)n2)cc1` [compound 1846], the “percent control (galling reduction), Radex 1 mg/kg” value in data set [2] was found to be 86%. In data set [3], the “percent control (galling reduction), Acetone 1 mg/kg” value turned out to be 88%.

As for `Brc1ccc(-c2cnc(-c3cccs3)o2)cc1` [compound 4776], the “acute oral toxicity: mortality and signs” value in data set [4] (500 mg/kg oral, three female mice, observed up to 14 days) is on record as “two animals died within three days”. The oral toxicity result in data set [4] (mice, estimate based on the 50 and 500 mg/kg studies) was “lower than 500 mg/kg”. In data set [1] (setting [11]), the pest or weed control at 4000 g/ha is 50% and the pest or weed control at 8000 g/ha was found to be 80%. Besides, in data set [5] (2 kg ai/ha, squash), the “RW28 root weight at 28 days after treatment” value stood at 7.5, the “RW43 root weight at 43 days after treatment” value is on record as 13.0 and the “TW28 top weight at 28 days after treatment” value is 250.8. Also, the “control of root galling compared with oxamyl at an equivalent rate” value in data set [5] (both the 28 day and the 43 day time point) is reported as “statistically better than oxamyl”. Moreover, in data set [6] (Table 1C test a), the “1 ppm gall rating” value is recorded as 1 (1=6-20%). In data set [6] (Table 1C test c), the “1 ppm gall rating” value is 1 (1=6-20%). Further, the pest or weed control at 500 g/ha in data set [7] (0.5 kg/ha, test c) came out at 78%. In addition, the pest or weed control at 1000 g/ha in data set [7] (1 kg/ha, test c) is 89%. In addition, the pest or weed control at 2000 g/ha in data set [7] (2 kg/ha, test a) is 99%.

As to `Cc1cc(Br)ccc1-c1noc(-c2ccco2)n1` [compound 5825], the pest or weed control at 4000 g/ha in data set [1] (setting [9]) was 98%. In data set [1] (setting [10]), the “percent control (galling reduction), 2 kg/ha rate” value is 69^a percent. Besides, in data set [1] (setting [10]), the pest or weed control at 8000 g/ha is 96%. Also, the EC50 (usually the concentration giving half of the maximal effect) came out at 0.4 µg/mL (≈ 1.31 µM) in data set [8] (24 h, L1 larvae, one day of exposure, read-out: EC50 L1 1D); 1.6 µg/mL (≈ 5.24 µM) in data set [8] (24 h, L4 larvae, one day of exposure, read-out: EC50 L4 1D); 0.4 µg/mL (≈ 1.31 µM) in data set [8] (48 h, L1 larvae, two days of exposure, read-out: EC50 L1 2D); 1.6 µg/mL (≈ 5.24 µM) in data set [8] (48 h, L4 larvae, two days of exposure, read-out: EC50 L4 2D); 0.4 µg/mL (≈ 1.31 µM) in data set [8] (72 h, L1 larvae, three days of exposure, read-out: EC50 L1 3D); 1.6 µg/mL (≈ 5.24 µM) in data set [8] (72 h, L4 larvae, three days, effects on the second generation larvae, read-out: EC50 L4 3D (F1)). Besides, the “percent control (galling reduction), Radex 1 mg/kg” value in data set [2] is recorded as 96%. The “percent control (galling reduction) relative to the control blank treatment” value in data set [3] (0 day treatment, 0.1 kg/ha, test a) was 50^a percent. Further, the “percent control (galling reduction), Acetone 1 mg/kg” value in data set [3] was determined as 96%.
